Data from paper PMC6391970, “Design, Synthesis and Characterization of Covalent KDM5 Inhibitors” (Angewandte Chemie (International Ed. in English), 2018).
Like-named read-outs stand apart in the source and are kept apart here.

Tests used:
[1] = target: T1, KDM3A (Homo sapiens, UniProt Q9Y4C1); test: KDM AlphaScreen selectivity panel, KDM3A; assay type: biochemical; details: for IC50: AlphaScreen after 120 min pre-incubation, read-out: KDM IC50 3A; for SI over KDM5B, 3A: KDM3A IC50/KDM5B IC50
T1 sequence (Q9Y4C1 1-1321): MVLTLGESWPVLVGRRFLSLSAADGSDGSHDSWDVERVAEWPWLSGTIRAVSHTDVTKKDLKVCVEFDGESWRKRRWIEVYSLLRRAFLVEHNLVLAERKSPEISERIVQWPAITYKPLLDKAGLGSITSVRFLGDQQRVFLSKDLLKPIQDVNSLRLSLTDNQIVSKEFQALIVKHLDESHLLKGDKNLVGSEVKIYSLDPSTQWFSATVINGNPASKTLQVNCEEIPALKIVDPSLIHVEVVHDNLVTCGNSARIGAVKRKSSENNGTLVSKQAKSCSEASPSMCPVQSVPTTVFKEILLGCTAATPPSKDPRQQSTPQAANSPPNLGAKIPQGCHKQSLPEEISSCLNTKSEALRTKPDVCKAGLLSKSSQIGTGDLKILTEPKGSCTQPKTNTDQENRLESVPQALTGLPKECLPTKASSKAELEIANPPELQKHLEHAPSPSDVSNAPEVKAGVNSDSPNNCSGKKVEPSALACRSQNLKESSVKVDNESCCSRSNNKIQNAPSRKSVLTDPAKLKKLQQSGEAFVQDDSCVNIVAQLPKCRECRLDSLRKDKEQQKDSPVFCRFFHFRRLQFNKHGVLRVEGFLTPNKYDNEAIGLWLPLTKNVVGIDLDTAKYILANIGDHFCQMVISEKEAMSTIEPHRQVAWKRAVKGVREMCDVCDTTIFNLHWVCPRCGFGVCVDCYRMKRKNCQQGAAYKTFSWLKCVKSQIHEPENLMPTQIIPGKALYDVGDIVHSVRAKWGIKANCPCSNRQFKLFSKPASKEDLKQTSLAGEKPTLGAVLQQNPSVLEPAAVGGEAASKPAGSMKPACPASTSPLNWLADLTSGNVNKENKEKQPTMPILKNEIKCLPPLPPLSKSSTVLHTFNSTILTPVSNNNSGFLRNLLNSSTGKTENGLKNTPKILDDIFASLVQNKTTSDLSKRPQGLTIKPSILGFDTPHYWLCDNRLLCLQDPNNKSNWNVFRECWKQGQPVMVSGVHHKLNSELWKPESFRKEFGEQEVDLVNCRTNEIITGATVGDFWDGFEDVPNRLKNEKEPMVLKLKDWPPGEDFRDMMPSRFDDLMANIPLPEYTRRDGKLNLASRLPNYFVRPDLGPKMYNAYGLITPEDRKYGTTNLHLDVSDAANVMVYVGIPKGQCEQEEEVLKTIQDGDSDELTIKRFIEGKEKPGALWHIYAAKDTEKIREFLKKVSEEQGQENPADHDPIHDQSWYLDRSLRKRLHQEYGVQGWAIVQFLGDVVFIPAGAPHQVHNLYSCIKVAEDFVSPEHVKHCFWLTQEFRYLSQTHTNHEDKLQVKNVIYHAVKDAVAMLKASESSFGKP
Description: (§1) A panel of JmjC KDMs was tested by AlphaScreen to determine the selectivity of the compounds (Table S2). […]
(§2) KDM alpha screen selectivity
(§3) Inhibition of histone demethylases was assessed using the histone demethylase AlphaScreen assay (Amplified Luminescence Proximity Homogenous Assay) as previously reported.[4] The basis of this assay for lysine demethylases have been widely described.[5] In brief, the assay was performed in 384-well plate format using white proxiplates (PerkinElmer), and transfer of titrations of compounds (100 nl) was performed using an ECHO 550 acoustic dispenser […]
(§4) Tween- 20) containing the appropriate demethylase enzyme (see Supplementary table 1 for final concentrations) was transferred to each well of a 384-well proxiplate with a Multidrop™ Combi Reagent Dispenser, and the enzymes allowed to pre-incubate for 120 minutes with compound (final concentration of DMSO was 1%). After that time, the enzyme reaction was initiated by addition of 5 µl of a substrate mix consisting of Ketoglutarate (2-OG), Ferrous Ammonium Sulphate (FAS), L-Ascorbic Acid (LAA) and biotinylated peptide substrate (see Supporting table X for final assay concentrations) and the reaction incubated for the indicated time at room temperature. Reaction was stopped by the addition of 5 μl of assay buffer containing EDTA (7.5 mM) and NaCl (400 mM). Streptavidin Donor beads (0.08 mg/ml) and Protein-A conjugated acceptor beads (0.08 mg/ml) (AlphaScreen General IgG detection kit was from Perkin Elmer) were pre-incubated for 1 hour with an antibody to the product methyl mark (Supplementary Table 1) and the presence of biotin-H3-product was detected by addition of 5 µl of the pre-incubated AlphaScreen beads (final concentrations of 0.02 mg/ml with respect to acceptor and donor beads). Detection was allowed to proceed for 2 hour at room temperature and the assay plates read in a BMG Labtech Pherastar FS plate reader (excitation, 680 nm; emission, 570 […]
(§5) IC50(t) = Ki (1 + K ) . ( η . k .t − 1) (1) […]
(§6) Table S4. AlphaScreen assay conditions for the KDM selectivity panel

[2] = target: KDM5A (Homo sapiens, UniProt P29375); test: KDM AlphaScreen selectivity panel, KDM5A; assay type: biochemical; details: for SI over KDM5B, 5A: KDM5A IC50/KDM5B IC50
Description: as §1, §2, §3, §4, §5, §6

[3] = AlphaScreen after 120 min pre-incubation, read-out: KDM IC50 5A

Sequence of KDM5A (P29375 whole entry): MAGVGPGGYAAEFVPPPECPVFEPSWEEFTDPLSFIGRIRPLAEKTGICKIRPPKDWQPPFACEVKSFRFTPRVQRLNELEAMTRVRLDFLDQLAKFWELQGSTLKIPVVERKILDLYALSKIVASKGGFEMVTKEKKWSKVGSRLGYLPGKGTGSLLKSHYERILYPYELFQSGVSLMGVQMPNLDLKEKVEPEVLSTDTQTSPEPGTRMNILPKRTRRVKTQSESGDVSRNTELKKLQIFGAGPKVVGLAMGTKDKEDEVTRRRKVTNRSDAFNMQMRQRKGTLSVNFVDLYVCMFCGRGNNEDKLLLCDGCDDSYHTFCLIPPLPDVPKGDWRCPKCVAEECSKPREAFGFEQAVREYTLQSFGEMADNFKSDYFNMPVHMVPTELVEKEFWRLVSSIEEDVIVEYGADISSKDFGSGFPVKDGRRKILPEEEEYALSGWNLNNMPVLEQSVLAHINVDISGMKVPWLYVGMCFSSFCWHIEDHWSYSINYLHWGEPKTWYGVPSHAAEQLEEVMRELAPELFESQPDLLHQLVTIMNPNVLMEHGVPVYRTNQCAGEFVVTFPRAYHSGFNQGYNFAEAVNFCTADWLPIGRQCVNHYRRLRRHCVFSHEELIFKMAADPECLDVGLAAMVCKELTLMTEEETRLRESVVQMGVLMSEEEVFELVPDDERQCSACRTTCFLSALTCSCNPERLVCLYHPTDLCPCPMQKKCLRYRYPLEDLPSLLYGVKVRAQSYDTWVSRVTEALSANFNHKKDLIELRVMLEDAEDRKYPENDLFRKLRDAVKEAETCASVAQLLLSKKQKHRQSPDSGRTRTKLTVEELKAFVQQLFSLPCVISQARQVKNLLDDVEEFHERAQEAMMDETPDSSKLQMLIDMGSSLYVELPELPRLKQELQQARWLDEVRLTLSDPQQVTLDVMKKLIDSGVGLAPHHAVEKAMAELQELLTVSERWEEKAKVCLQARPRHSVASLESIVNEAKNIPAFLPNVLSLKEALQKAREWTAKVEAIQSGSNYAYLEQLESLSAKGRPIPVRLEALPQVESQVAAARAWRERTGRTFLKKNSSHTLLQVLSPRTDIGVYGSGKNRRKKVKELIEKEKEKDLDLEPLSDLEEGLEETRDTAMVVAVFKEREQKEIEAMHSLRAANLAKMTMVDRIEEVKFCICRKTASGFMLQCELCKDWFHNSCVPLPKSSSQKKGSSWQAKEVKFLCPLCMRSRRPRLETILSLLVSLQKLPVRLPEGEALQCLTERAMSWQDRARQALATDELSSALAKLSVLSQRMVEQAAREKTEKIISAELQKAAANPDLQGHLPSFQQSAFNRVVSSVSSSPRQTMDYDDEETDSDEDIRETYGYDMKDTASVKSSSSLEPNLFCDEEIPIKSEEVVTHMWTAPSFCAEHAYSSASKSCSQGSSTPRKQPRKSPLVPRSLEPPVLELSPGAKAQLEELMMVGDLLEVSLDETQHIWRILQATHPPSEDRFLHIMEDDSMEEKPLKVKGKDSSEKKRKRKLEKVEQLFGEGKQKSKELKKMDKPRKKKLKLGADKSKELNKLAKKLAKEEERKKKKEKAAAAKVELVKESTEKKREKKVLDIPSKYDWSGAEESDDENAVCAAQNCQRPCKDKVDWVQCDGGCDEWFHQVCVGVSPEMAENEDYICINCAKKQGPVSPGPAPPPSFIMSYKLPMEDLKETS

Row | Compound | IC50 [1] | SI over KDM5B, 3A [1] | IC50 [2, 3] | SI over KDM5B, 5A [2] | IC50 ([2]; 120 minutes pre-incubation, read-out: KDM5A IC50)
1 | C=CC(=O)NCCOc1ccc(-c2[nH]c3c(C#N)cnn3c(=O)c2C(C)C)cc1 [Compound 9] | 17000 ± 400 nM | 264 | 50 ± 2 nM | 1 | –
2 | C=CC(=O)N1CCC(n2cc(-c3[nH]c4c(C#N)cnn4c(=O)c3C(C)C)cn2)CC1 [Compound 10] | 9400 ± 400 nM | 547 | 70 ± 8 nM | 4 | –
3 | CN(CCc1cnn(-c2nccc3c(=O)[nH]cnc23)c1)Cc1cccc(NC(=O)CCl)c1 [Compound 5] | 2600 ± 100 nM | 260 | 30 ± 1 nM | 3 | –
4 | CN(C)C/C=C/C(=O)Nc1cccc(CN(C)CCc2cnn(-c3nccc4c(=O)[nH]cnc34)c2)c1 [Compound 6] | – | – | 657 ± 7 nM | – | –
5 | CC(C)c1c(-c2cnn(C3CCN(C(=O)CCl)CC3)c2)[nH]c2c(C#N)cnn2c1=O [Compound 11] | 9100 ± 800 nM | 1007 | 34 ± 2 nM | 4 | –
6 | C=CC(=O)Nc1cccc(CN(C)CCc2cnn(-c3nccc4c(=O)[nH]cnc34)c2)c1 [Compound 4] | 8400 ± 4100 nM | – | 30 ± 4 nM | 1 | –
7 | CC(C)c1c(-c2cnn(CCNC(=O)CCl)c2)[nH]c2c(C#N)cnn2c1=O [Compound 7] | 5700 ± 400 nM | 806 | – | 1 | 10 nM
